As usually defined, the Ki is a measure of affinity in units of concentration, obtained from inhibition or displacement. A high value points to weaker binding. As usually defined, the Emax is the maximal effect, on the per cent scale that the assay sets. What is called IC50 is the midpoint of a concentration-inhibition curve. Broadly, the EC50 is the concentration needed to bring the measured effect to its halfway point. One may read the inhibition as how much of the control response was suppressed.

These results are taken from ChEMBL document CHEMBL4196200 (J Med Chem, 2018).

Bounds are passed on as bounds.

Experiment [1] concerns the target T1, Vasopressin V1a receptor (Homo sapiens, UniProt P37288). Put plainly: Displacement of DY647 from SNAP-tagged V1A receptor (unknown origin) expressed in HEK293 cells by TR-FRET assay. It counts as cell-based. (In general: TR-FRET usually uses a lanthanide donor and a delayed reading to cut background.)
Target sequence in this assay (P37288 whole entry): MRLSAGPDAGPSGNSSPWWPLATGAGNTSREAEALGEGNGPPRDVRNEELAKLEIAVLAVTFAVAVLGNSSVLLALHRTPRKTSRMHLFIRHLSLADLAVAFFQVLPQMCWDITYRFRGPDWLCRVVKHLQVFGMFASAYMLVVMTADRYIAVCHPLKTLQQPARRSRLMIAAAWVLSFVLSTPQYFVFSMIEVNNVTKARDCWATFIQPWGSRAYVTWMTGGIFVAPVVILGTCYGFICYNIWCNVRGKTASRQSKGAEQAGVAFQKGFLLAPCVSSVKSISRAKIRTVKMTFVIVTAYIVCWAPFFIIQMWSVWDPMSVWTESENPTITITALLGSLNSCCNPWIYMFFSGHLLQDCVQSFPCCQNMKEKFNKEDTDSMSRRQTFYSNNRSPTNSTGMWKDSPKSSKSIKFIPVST
In experiment [2] the target is T1, Vasopressin V1a receptor. Put plainly: Agonist activity at human V1A receptor expressed in HEK cells assessed as increase in intracellular calcium flux at 1 uM incubated for 45 mins by Indo1-AM dye based fluorescence assay relative to AVP. Type of experiment: functional, cell-based. (In general: A change in cytosolic calcium serves as a functional read-out for many receptors and channels.)
Target sequence in this assay (P37288 whole entry, looked up): as the sequence (P37288 whole entry) above

For experiment [3], the target named is T1, Vasopressin V1a receptor. Put plainly: Antagonist activity at human V1A receptor expressed in HEK cells assessed as inhibition of AVP-induced intracellular calcium flux incubated for 45 mins by Indo1-AM dye based fluorescence assay relative to AVP. Type of experiment: functional, cell-based.
Target sequence in this assay (P37288 whole entry): as above
For experiment [4], the target named is T2, Vasopressin V2 receptor (Homo sapiens, UniProt P30518). Nature of the experiment: Displacement of DY647 from SNAP-tagged V2 receptor (unknown origin) expressed in HEK293 cells by TR-FRET assay. It counts as cell-based.
T2 sequence (P30518 whole entry): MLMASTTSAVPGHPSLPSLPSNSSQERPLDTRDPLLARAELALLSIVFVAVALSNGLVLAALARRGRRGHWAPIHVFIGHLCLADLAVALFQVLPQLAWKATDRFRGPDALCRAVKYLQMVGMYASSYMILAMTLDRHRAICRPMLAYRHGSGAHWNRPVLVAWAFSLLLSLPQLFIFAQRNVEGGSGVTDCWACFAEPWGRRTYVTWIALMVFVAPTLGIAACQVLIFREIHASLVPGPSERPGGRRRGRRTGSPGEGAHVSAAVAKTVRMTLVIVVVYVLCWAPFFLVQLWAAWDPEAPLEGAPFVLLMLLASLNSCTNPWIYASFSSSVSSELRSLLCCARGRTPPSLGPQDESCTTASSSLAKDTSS
The target of experiment [5] is T3, Oxytocin receptor (Homo sapiens, UniProt P30559).
T3 sequence (P30559 whole entry): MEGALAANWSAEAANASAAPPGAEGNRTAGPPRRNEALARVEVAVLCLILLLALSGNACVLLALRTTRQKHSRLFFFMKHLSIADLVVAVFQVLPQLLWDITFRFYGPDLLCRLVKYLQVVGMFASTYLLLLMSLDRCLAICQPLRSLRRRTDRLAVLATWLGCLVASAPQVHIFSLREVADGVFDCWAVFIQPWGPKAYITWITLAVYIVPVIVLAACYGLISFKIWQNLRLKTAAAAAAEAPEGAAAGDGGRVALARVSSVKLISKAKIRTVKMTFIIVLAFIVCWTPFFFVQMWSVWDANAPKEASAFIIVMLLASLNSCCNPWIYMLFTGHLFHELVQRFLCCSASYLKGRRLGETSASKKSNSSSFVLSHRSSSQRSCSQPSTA
Nature of the experiment: Displacement of DY647 from SNAP-tagged OTR receptor (unknown origin) expressed in HEK293 cells by TR-FRET assay. It counts as cell-based.

In experiment [6] the target is T4, Oxytocin receptor (Homo sapiens) (UniProt P30559).
T4 sequence (whole entry): T3 sequence (P30559 whole entry)
Nature of the experiment: Agonist activity at human OTR expressed in HEK cells assessed as increase in intracellular calcium flux at 1 uM incubated for 45 mins by Indo1-AM dye based fluorescence assay relative to OT. It counts as functional, cell-based.

Experiment [7] deals with T3, Oxytocin receptor. Put plainly: Antagonist activity at human OTR expressed in HEK cells assessed as inhibition of OT-induced intracellular calcium flux incubated for 45 mins by Indo1-AM dye based fluorescence assay. Type of experiment: functional, cell-based.
The target in experiment [8] is T1, Vasopressin V1a receptor. Put plainly: Displacement of [3H]-AVP from human V1A receptor expressed in CHO cell membranes. (In general: In a radioligand displacement assay an active substance lowers the binding of a labelled ligand.)
Target sequence in this assay (P37288 whole entry): as the sequence (P37288 whole entry) above
For experiment [9], the target named is T5, Vasopressin V1b receptor (Homo sapiens, UniProt P47901).
T5 sequence (P47901 whole entry): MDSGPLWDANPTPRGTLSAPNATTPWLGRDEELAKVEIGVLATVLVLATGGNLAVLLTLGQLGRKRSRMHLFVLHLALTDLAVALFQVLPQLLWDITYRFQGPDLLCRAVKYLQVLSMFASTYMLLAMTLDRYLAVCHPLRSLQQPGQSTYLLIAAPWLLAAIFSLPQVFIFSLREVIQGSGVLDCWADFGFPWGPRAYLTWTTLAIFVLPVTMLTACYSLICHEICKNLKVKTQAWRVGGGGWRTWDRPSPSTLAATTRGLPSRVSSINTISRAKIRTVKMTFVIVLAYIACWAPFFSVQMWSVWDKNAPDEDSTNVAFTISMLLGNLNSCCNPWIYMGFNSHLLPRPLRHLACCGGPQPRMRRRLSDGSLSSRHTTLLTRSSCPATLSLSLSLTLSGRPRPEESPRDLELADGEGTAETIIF
Put plainly: Displacement of [3H]-AVP from human V1B receptor expressed in CHO cell membranes.

Experiment [10] deals with T2, Vasopressin V2 receptor. Nature of the experiment: Displacement of [3H]-AVP from human V2 receptor expressed in CHO cell membranes.
Experiment [11] deals with T3, Oxytocin receptor. Put plainly: Displacement of [3H]-oxytocin from OTR receptor in human USMC cell membranes.
The target in experiment [12] is T4, Oxytocin receptor (Homo sapiens). Nature of the experiment: Agonist activity at human OTR receptor expressed in HEK293FT cells assessed as stimulation of calcium release by Aequorin based assay relative to OT. Type of experiment: functional, cell-based.
The target in experiment [13] is T6, Oxytocin receptor (Mus musculus) (UniProt P97926).
T6 sequence (whole entry): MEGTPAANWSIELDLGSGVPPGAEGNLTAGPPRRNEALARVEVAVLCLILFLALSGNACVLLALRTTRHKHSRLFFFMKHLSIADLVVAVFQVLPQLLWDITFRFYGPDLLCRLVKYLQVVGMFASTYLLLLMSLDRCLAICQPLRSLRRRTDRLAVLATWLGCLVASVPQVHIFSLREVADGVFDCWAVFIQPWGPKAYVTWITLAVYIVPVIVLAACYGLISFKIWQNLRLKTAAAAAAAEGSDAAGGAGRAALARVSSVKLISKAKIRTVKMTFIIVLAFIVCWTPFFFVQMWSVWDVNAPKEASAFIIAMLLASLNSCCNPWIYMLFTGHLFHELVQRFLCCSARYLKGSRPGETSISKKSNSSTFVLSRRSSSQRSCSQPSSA
Put plainly: Agonist activity at mouse OTR receptor expressed in HEK293FT cells assessed as stimulation of calcium release by Aequorin based assay relative to OT. It counts as functional, cell-based.

The target in experiment [14] is T4, Oxytocin receptor (Homo sapiens). Nature of the experiment: Agonist activity at human OTR receptor expressed in HEK293FT cells incubated for 30 mins by beta-arrestin recruitment assay relative to OT. Type of experiment: functional, cell-based.
In experiment [15] the target is T1, Vasopressin V1a receptor.
Target sequence in this assay (P37288 whole entry): as the sequence (P37288 whole entry) above
Description: Agonist activity at human V1a receptor expressed in HEK293FT cells incubated for 30 mins by beta-arrestin recruitment assay
For experiment [16], the target named is T3, Oxytocin receptor. Nature of the experiment: Agonist activity at human OTR expressed in HEK cells assessed as increase in intracellular calcium flux incubated for 45 mins by Indo1-AM dye based fluorescence assay. It counts as functional, cell-based.
The target of experiment [17] is T4, Oxytocin receptor (Homo sapiens). Nature of the experiment: Agonist activity at human OTR expressed in HEK cells assessed as increase in intracellular calcium flux incubated for 45 mins by Indo1-AM dye based fluorescence assay relative to OT. It counts as functional, cell-based.
The target is the same in experiment [18]. Nature of the experiment: Antagonist activity at human OTR expressed in HEK cells assessed as inhibition of OT-induced intracellular calcium flux at 1 uM incubated for 45 mins by Indo1-AM dye based fluorescence assay relative to OT. It counts as functional, cell-based.
For experiment [19] the target is unchanged. Put plainly: Agonist activity at human OTR receptor expressed in CHO cells co-expressing NFAT-luciferase incubated for 5 hrs by luciferase reporter gene assay relative to OT. Type of experiment: functional, cell-based.

With `Cc1cc(C(=O)N2Cc3cnn(C)c3Nc3ccccc32)ccc1CNC(=O)NCC(=S)N(C)C`, the figures for the Ki in experiment [1], in experiment [4] and in experiment [5] were 82 nM, over 1000 nM and 61 nM, respectively. For the same compound, the Emax in experiment [2] and in experiment [6] was 5 to 10% throughout. Further, the IC50 amounted to 9 nM in experiment [3] and 600 nM in experiment [7].

For the compound `Cc1occc1C(=O)Nc1ccc(C(=O)N2CCC(F)(F)/C(=C\C(=O)N3CCC(N4CCCCC4)CC3)c3ccccc32)cc1`, the Ki in experiment [8] is 0.3 nM; in experiment [9], 25500 nM; in [10] it was 381 nM; in experiment [11], 71 nM.

For the compound `COC(=O)CNC(=O)NCc1ccc(C(=O)N2Cc3cnn(C)c3Nc3ccccc32)cc1C`, the results for the Ki in experiment [1], in [4] and in experiment [5] were over 1000 nM, over 1000 nM and 385 nM, respectively. Moreover, the Emax in experiment [2] and in [6] was 5 to 10% each time. For the same compound, the IC50 in [3] is 110 nM; in experiment [7], over 1000 nM.

With `Cc1cc(C(=O)N2Cc3cnn(C)c3Nc3ccccc32)ccc1CNC(=O)NCC(=O)N(C)C`, the values for the inhibition constant (Ki) in experiment [1], in experiment [4] and in experiment [5] were over 1000 nM, over 1000 nM and 417 nM, respectively. In addition, the Emax in [2] and in experiment [6] was 5 to 10% each time. Besides, the values for the IC50 in experiment [3] and in experiment [7] were 50 nM and 775 nM, respectively.

In the case of `CC[C@H](C)[C@@H]1NC(=O)[C@H](Cc2ccc(O)cc2)NC(=O)[C@@H](N)CSSC[C@@H](C(=O)N2CCC[C@H]2C(=O)N[C@@H](CC(C)C)C(=O)NCC(N)=O)NC(=O)[C@H](CC(N)=O)NC(=O)[C@H](CCC(N)=O)NC1=O` [OXYTOCIN], the Emax in experiment [12], in experiment [13] and in experiment [14] was 100% each time. In experiment [15], the IC50 result is listed as “Not Active”.

Consider `Cc1cc(C(=O)N2Cc3cnn(C)c3Nc3ccccc32)ccc1CNC(=O)N1CCC[C@H]1C(=S)N1CCCN(C)CC1`, for which the Ki in [1] amounted to 196 nM; in experiment [5], 141 nM. Further, the Emax in [2] was 5 to 10%; in experiment [17], 84%; in experiment [19], 100%. The IC50 in experiment [3] is 8 nM. For the same compound, in [16], the EC50 was 28 nM. The inhibition in experiment [18] is 5 to 10%.
